Literature values in patent US20240390265A1, “FORMULATIONS FOR TRANSDERMAL ADMINISTRATION OF ACTIVE AGENTS” (DYVE BIOSCIENCES, INC., priority 2022, published 2024).

Key:
BRAF [1] = target: T1, BRAF (Homo sapiens, UniProt P15056); conditions: read-out: IC50 (B-Raf inhibitor)
Target sequence in this assay (P15056 2-766 limits assumed): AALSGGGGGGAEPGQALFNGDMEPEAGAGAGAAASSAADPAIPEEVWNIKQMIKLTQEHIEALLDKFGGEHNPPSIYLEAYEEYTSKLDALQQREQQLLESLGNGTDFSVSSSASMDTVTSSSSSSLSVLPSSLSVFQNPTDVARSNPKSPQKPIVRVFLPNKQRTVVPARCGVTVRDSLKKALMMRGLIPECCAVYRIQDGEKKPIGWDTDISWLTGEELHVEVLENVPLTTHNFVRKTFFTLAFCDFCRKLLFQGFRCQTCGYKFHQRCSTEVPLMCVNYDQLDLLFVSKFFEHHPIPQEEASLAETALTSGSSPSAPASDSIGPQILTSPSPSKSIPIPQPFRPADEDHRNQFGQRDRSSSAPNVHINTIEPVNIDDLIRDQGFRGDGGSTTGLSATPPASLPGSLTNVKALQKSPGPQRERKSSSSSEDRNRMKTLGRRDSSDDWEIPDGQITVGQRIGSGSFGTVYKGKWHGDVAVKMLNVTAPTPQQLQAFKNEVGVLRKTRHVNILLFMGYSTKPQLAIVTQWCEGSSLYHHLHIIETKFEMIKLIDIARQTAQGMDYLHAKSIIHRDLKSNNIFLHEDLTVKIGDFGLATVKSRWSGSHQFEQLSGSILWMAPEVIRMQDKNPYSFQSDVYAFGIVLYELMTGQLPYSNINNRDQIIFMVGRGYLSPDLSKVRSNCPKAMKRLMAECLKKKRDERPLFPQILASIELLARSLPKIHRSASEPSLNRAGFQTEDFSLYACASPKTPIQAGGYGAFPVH

[2] = tested on: tumor models harboring KRAS G12D mutations
[3] = tested on: KRAS G12D mutant tumor cells
[4] = tested on: cell line and primary human tumor derived xenograft models; conditions: at well-tolerated doses
CRAF = CRAF (Homo sapiens, UniProt P04049)
[5] = tested on: panel of 456 human kinases
[6] = in vivo
BRAF [7] = target: T1, BRAF
Target sequence in this assay (P15056 whole entry): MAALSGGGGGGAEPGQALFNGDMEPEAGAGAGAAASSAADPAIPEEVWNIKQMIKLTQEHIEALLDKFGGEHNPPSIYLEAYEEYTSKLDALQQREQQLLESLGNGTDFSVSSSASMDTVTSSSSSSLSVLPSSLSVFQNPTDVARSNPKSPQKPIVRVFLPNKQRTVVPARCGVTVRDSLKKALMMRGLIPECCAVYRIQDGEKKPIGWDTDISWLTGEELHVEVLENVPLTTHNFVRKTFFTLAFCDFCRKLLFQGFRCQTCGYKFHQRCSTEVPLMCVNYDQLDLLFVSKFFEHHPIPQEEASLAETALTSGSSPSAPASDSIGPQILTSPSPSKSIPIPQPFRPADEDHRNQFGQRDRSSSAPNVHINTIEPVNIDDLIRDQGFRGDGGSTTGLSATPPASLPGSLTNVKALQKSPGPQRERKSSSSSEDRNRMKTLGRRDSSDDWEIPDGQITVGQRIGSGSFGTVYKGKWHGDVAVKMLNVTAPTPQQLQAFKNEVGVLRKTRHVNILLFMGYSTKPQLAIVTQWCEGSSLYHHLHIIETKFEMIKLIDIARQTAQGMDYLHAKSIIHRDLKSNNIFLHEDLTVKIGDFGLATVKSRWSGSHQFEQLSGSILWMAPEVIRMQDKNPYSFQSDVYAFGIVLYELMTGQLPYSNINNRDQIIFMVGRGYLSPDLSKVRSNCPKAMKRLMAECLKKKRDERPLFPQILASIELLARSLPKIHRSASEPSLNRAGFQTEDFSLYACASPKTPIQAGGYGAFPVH

Chain of CRAF (P04049 whole entry): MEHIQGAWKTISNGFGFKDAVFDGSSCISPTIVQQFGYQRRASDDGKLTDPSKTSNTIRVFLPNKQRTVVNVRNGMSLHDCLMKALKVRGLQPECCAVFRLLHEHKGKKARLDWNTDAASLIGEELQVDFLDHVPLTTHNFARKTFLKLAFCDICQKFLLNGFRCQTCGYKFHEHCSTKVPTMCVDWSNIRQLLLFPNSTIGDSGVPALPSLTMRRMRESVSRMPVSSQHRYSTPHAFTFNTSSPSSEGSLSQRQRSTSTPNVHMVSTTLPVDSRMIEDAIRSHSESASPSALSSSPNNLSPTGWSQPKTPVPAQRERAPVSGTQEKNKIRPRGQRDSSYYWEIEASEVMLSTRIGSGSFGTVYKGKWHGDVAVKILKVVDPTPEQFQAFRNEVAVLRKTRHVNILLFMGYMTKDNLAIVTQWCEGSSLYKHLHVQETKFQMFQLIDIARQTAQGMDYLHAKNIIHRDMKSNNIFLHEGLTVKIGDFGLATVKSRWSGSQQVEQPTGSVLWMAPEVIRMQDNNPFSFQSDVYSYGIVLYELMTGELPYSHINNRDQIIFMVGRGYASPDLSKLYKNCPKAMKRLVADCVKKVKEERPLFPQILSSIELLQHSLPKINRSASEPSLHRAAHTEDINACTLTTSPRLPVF

For `Cc1ccc2c(Nc3cccc(OC(F)(F)F)c3)nccc2c1Nc1ncccc1-c1ncnc2nc[nH]c12` [LUT014, 6-methyl-5-N-[3-(7H-purin-6-yl)pyridin-2-yl]-1-N-[3-(trifluoromethoxy)phenyl]isoquinoline-1,5-diamine], the IC50 (BRAF [1]) is listed as 11.7 nM.
In the case of `C#Cc1c(F)ccc2cc(O)cc(-c3ncc4c(N5CC6CCC(C5)N6)nc(OC[C@@]56CCCN5C[C@H](F)C6)nc4c3F)c12` [MRTX1133], the “in vivo efficacy in tumor models harboring KRAS G12D mutations” value [2] is listed as “marked in vivo efficacy” and the “activity in cellular assays” value [3] is listed as “single digit nanomolar”.
In the case of `Cc1ccc(NC(=O)c2ccnc(C(F)(F)F)c2)cc1-c1cc(OCCO)nc(N2CCOCC2)c1` [Naporafenib], the “effect on tumors in xenograft models” value [4] is given as “tumor regression”, the “concentrations inhibiting CRAF kinase activity” value (CRAF) is given as “picomolar” and the “selectivity against a panel of 456 human kinases” value [5] is given as “high degree of selectivity”. The oral bioavailability [6] was “orally bioavailable” and the “concentrations inhibiting BRAF kinase activity” value (BRAF [7]) was “picomolar”.
